“Also recorded” adds a separate entry of the source.
Assay: Adverse events (CTCAEv3.0), worst grade per patient regardless of relation, and laboratory parameters
Assay type: in vivo
Method: Toxicity was evaluated according to common toxicity criteria for adverse events (CTCAEv3.0). The MTD was defined as the dose level(s) at which at least two out of six patients developed DLT.
Toxicity assessment, haematology and clinical biochemistry were performed at baseline and weekly during the study. Physical and ECOG performance status were recorded at baseline and before the next cycle.

Structure (SMILES): CC(C)C[C@@H](C(=O)N[C@H](C(=O)OC1CCCC1)c1ccccc1)[C@H](O)C(=O)NO [tosedostat]
- Dyspnoea, CTCAE grade 1, patients (human, in vivo, 21 days): 0
- Eosinophilic myocarditis, CTCAE grade 1, patients (human, in vivo, 21 days): 0
- Eosinophilic myocarditis, CTCAE grade 2, patients (human, in vivo, 21 days): 0
- Eosinophilic myocarditis, CTCAE grade 3, patients (human, in vivo, 21 days): 0
- Eosinophilic myocarditis, CTCAE grade 4, patients (human, in vivo, 21 days): 0
- Eosinophilic myocarditis, patients with events, % (human, in vivo, 21 days): 0%
- Erythema, CTCAE grade 1, patients (human, in vivo, 21 days): 0
- Erythema, CTCAE grade 2, patients (human, in vivo, 21 days): 0
- Erythema, CTCAE grade 3, patients (human, in vivo, 21 days): 0
- Erythema, CTCAE grade 4, patients (human, in vivo, 21 days): 0
- Erythema, patients with events, % (human, in vivo, 21 days): 0%
- Fatigue, CTCAE grade 1, patients (human, in vivo, 21 days): 7
- Fatigue, CTCAE grade 2, patients (human, in vivo, 21 days): 2
- Fatigue, CTCAE grade 3, patients (human, in vivo, 21 days): 1
- Fatigue, CTCAE grade 4, patients (human, in vivo, 21 days): 0
- Fatigue, patients with events, % (human, in vivo, 21 days): 45%
- Gastric dilatation, CTCAE grade 1, patients (human, in vivo, 21 days): 0
- Gastric dilatation, CTCAE grade 2, patients (human, in vivo, 21 days): 0
- Gastric dilatation, CTCAE grade 3, patients (human, in vivo, 21 days): 1
- Gastric dilatation, CTCAE grade 4, patients (human, in vivo, 21 days): 0
- Gastric dilatation, patients with events, % (human, in vivo, 21 days): 5%
- General physical health deterioration, CTCAE grade 1, patients (human, in vivo, 21 days): 0
- General physical health deterioration, CTCAE grade 2, patients (human, in vivo, 21 days): 0
- General physical health deterioration, CTCAE grade 3, patients (human, in vivo, 21 days): 0
- General physical health deterioration, CTCAE grade 4, patients (human, in vivo, 21 days): 0
- General physical health deterioration, patients with events, % (human, in vivo, 21 days): 0%
- Hypercalcaemia, CTCAE grade 1, patients (human, in vivo, 21 days): 0
- Hypercalcaemia, CTCAE grade 2, patients (human, in vivo, 21 days): 0
- Hypercalcaemia, CTCAE grade 3, patients (human, in vivo, 21 days): 0
- Hypercalcaemia, CTCAE grade 4, patients (human, in vivo, 21 days): 0
- Hypercalcaemia, patients with events, % (human, in vivo, 21 days): 0%
- Hyperglycaemia, CTCAE grade 1, patients (human, in vivo, 21 days): 0
- Hyperglycaemia, CTCAE grade 2, patients (human, in vivo, 21 days): 0
- Hyperglycaemia, CTCAE grade 3, patients (human, in vivo, 21 days): 2
- Hyperglycaemia, CTCAE grade 4, patients (human, in vivo, 21 days): 0
- Hyperglycaemia, patients with events, % (human, in vivo, 21 days): 9%
- Hyperhidrosis, CTCAE grade 1, patients (human, in vivo, 21 days): 1
- Hyperhidrosis, CTCAE grade 2, patients (human, in vivo, 21 days): 0
- Hyperhidrosis, CTCAE grade 3, patients (human, in vivo, 21 days): 0
- Hyperhidrosis, CTCAE grade 4, patients (human, in vivo, 21 days): 0
- Hyperhidrosis, patients with events, % (human, in vivo, 21 days): 5%
- Leukopenia, CTCAE grade 1, patients (human, in vivo, 21 days): 0
- Leukopenia, CTCAE grade 2, patients (human, in vivo, 21 days): 2
- Leukopenia, CTCAE grade 3, patients (human, in vivo, 21 days): 2
- Leukopenia, CTCAE grade 4, patients (human, in vivo, 21 days): 0
- Leukopenia, patients with events, % (human, in vivo, 21 days): 18%
- Malaise, CTCAE grade 2, patients (human, in vivo, 21 days): 0
- Malaise, CTCAE grade 3, patients (human, in vivo, 21 days): 1
- Malaise, CTCAE grade 4, patients (human, in vivo, 21 days): 0
- Malaise, patients with events, % (human, in vivo, 21 days): 5%
- Mucosal inflammation, CTCAE grade 1, patients (human, in vivo, 21 days): 2
- Mucosal inflammation, CTCAE grade 2, patients (human, in vivo, 21 days): 1
- Mucosal inflammation, CTCAE grade 3, patients (human, in vivo, 21 days): 0
- Mucosal inflammation, CTCAE grade 4, patients (human, in vivo, 21 days): 0
- Mucosal inflammation, patients with events, % (human, in vivo, 21 days): 14%
- Myalgia, CTCAE grade 1, patients (human, in vivo, 21 days): 7
- Myalgia, CTCAE grade 2, patients (human, in vivo, 21 days): 1
- Myalgia, CTCAE grade 3, patients (human, in vivo, 21 days): 1
- Myalgia, CTCAE grade 4, patients (human, in vivo, 21 days): 0
- Myalgia, patients with events, % (human, in vivo, 21 days): 41%
- Nasopharyngitis, CTCAE grade 1, patients (human, in vivo, 21 days): 2
- Nasopharyngitis, CTCAE grade 2, patients (human, in vivo, 21 days): 0
- Nasopharyngitis, CTCAE grade 3, patients (human, in vivo, 21 days): 0
- Nasopharyngitis, CTCAE grade 4, patients (human, in vivo, 21 days): 0
- Nasopharyngitis, patients with events, % (human, in vivo, 21 days): 9%
- Nausea, CTCAE grade 1, patients (human, in vivo, 21 days): 4
- Nausea, CTCAE grade 2, patients (human, in vivo, 21 days): 1
- Nausea, CTCAE grade 3, patients (human, in vivo, 21 days): 0
- Nausea, CTCAE grade 4, patients (human, in vivo, 21 days): 0
- Nausea, patients with events, % (human, in vivo, 21 days): 23%
- Neutropenia, CTCAE grade 1, patients (human, in vivo, 21 days): 0
- Neutropenia, CTCAE grade 2, patients (human, in vivo, 21 days): 1
- Neutropenia, CTCAE grade 3, patients (human, in vivo, 21 days): 2
- Neutropenia, CTCAE grade 4, patients (human, in vivo, 21 days): 3
- Neutropenia, patients with events, % (human, in vivo, 21 days): 27%
- Oedema peripheral, CTCAE grade 1, patients (human, in vivo, 21 days): 4
- Oedema peripheral, CTCAE grade 2, patients (human, in vivo, 21 days): 1
- Oedema peripheral, CTCAE grade 3, patients (human, in vivo, 21 days): 0
- Oedema peripheral, CTCAE grade 4, patients (human, in vivo, 21 days): 0
- Oedema peripheral, patients with events, % (human, in vivo, 21 days): 23%
- Oedema, CTCAE grade 1, patients (human, in vivo, 21 days): 3
- Oedema, CTCAE grade 2, patients (human, in vivo, 21 days): 0
- Oedema, CTCAE grade 3, patients (human, in vivo, 21 days): 0
- Oedema, CTCAE grade 4, patients (human, in vivo, 21 days): 0
- Oedema, patients with events, % (human, in vivo, 21 days): 14%
- Peripheral sensory neuropathy, CTCAE grade 1, patients (human, in vivo, 21 days): 4
- Peripheral sensory neuropathy, CTCAE grade 2, patients (human, in vivo, 21 days): 3
- Peripheral sensory neuropathy, CTCAE grade 3, patients (human, in vivo, 21 days): 0
- Peripheral sensory neuropathy, CTCAE grade 4, patients (human, in vivo, 21 days): 0
- Peripheral sensory neuropathy, patients with events, % (human, in vivo, 21 days): 32%
- Pollakiuria, CTCAE grade 1, patients (human, in vivo, 21 days): 0
- Pollakiuria, CTCAE grade 2, patients (human, in vivo, 21 days): 0
- Pollakiuria, CTCAE grade 3, patients (human, in vivo, 21 days): 0
- Pollakiuria, CTCAE grade 4, patients (human, in vivo, 21 days): 0
- Pollakiuria, patients with events, % (human, in vivo, 21 days): 0%
- Pruritus, CTCAE grade 1, patients (human, in vivo, 21 days): 3
- Pruritus, CTCAE grade 2, patients (human, in vivo, 21 days): 0
- Pruritus, CTCAE grade 3, patients (human, in vivo, 21 days): 1
- Pruritus, CTCAE grade 4, patients (human, in vivo, 21 days): 0
- Pruritus, patients with events, % (human, in vivo, 21 days): 18%
- Pyrexia, CTCAE grade 1, patients (human, in vivo, 21 days): 1
- Pyrexia, CTCAE grade 2, patients (human, in vivo, 21 days): 1
- Pyrexia, CTCAE grade 3, patients (human, in vivo, 21 days): 0
- Pyrexia, CTCAE grade 4, patients (human, in vivo, 21 days): 0
- Pyrexia, patients with events, % (human, in vivo, 21 days): 9%
- Rash, CTCAE grade 1, patients (human, in vivo, 21 days): 3
- Rash, CTCAE grade 2, patients (human, in vivo, 21 days): 1
- Rash, CTCAE grade 3, patients (human, in vivo, 21 days): 1
- Rash, CTCAE grade 4, patients (human, in vivo, 21 days): 0
- Rash, patients with events, % (human, in vivo, 21 days): 23%
- Spinal cord compression, CTCAE grade 1, patients (human, in vivo, 21 days): 0
- Spinal cord compression, CTCAE grade 2, patients (human, in vivo, 21 days): 0
- Spinal cord compression, CTCAE grade 3, patients (human, in vivo, 21 days): 0
- Spinal cord compression, CTCAE grade 4, patients (human, in vivo, 21 days): 0
- Spinal cord compression, patients with events, % (human, in vivo, 21 days): 0%
- Tumour pain, CTCAE grade 1, patients (human, in vivo, 21 days): 0
- Tumour pain, CTCAE grade 2, patients (human, in vivo, 21 days): 0
- Tumour pain, CTCAE grade 3, patients (human, in vivo, 21 days): 1
- Tumour pain, CTCAE grade 4, patients (human, in vivo, 21 days): 0
- Tumour pain, patients with events, % (human, in vivo, 21 days): 5%
- Urinary tract infection, CTCAE grade 1, patients (human, in vivo, 21 days): 0
- Urinary tract infection, CTCAE grade 2, patients (human, in vivo, 21 days): 0
- Urinary tract infection, CTCAE grade 3, patients (human, in vivo, 21 days): 1
- Urinary tract infection, CTCAE grade 4, patients (human, in vivo, 21 days): 0
- Urinary tract infection, patients with events, % (human, in vivo, 21 days): 5%
- Vomiting, CTCAE grade 1, patients (human, in vivo, 21 days): 3
- Vomiting, CTCAE grade 2, patients (human, in vivo, 21 days): 1
- Vomiting, CTCAE grade 3, patients (human, in vivo, 21 days): 0
- Vomiting, CTCAE grade 4, patients (human, in vivo, 21 days): 0
- Vomiting, patients with events, % (human, in vivo, 21 days): 18%
- γ-glutamyltransferase increased, CTCAE grade 1, patients (human, in vivo, 21 days): 0
- γ-glutamyltransferase increased, CTCAE grade 2, patients (human, in vivo, 21 days): 0
- γ-glutamyltransferase increased, CTCAE grade 3, patients (human, in vivo, 21 days): 1
- γ-glutamyltransferase increased, CTCAE grade 4, patients (human, in vivo, 21 days): 0
- γ-glutamyltransferase increased, patients with events, % (human, in vivo, 21 days): 5%
- death on study, cause (one patient, cohort 5, 6 days after third paclitaxel infusion, 2 days after last tosedostat dose): eosinophilic myocarditis, possibly related to study medication; also recorded: eosinophilic myocarditis, considered possibly related to paclitaxel, tosedostat or other medications
